The text below walks through data of ChEMBL document CHEMBL5465560, “Selectivity Literature for EUbOPEN Chemogenomic Library” (2024).

Assay [1] concerns the target Cyclin-dependent kinase 2/cyclin A (Homo sapiens) (UniProt P24941+P20248+P78396). The assay can be described thus: Selectivity interaction (Kinase panel (Z-LYTE Assay)) EUB0001632a CDK2. Particulars: at 10 µM. Format: protein-complex assay.
Assay [2] has as its target T1, cGMP-dependent protein kinase 2 (Homo sapiens) (UniProt Q13237).
T1 sequence (whole entry): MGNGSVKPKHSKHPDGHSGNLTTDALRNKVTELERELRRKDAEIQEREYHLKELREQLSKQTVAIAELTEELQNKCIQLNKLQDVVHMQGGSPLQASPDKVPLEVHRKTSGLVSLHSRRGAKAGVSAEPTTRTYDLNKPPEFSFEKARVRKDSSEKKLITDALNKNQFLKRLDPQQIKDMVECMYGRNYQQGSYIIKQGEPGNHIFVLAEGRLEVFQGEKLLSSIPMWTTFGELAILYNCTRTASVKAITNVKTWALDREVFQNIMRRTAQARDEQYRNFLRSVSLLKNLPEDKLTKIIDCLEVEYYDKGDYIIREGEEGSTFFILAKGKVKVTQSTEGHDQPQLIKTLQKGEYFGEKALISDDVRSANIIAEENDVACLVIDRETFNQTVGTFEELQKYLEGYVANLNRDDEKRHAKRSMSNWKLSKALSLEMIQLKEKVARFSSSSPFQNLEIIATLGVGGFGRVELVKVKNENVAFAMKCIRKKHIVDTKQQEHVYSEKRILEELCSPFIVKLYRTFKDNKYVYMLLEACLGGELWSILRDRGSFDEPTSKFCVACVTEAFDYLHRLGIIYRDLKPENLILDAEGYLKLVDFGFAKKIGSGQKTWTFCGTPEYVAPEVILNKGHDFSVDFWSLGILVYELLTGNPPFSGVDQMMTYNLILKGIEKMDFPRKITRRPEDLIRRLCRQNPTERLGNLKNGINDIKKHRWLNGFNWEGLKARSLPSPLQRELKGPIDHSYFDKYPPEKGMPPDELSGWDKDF
The assay can be described thus: Selectivity interaction (KinomeScan (DiscoverX)) EUB0000666a PRKG2. Particulars: at 10 µM.

Assay [3] addresses Protein arginine N-methyltransferase 6 (Homo sapiens, UniProt Q96LA8). To be noted: at 1 µM.
Assay [4] addresses Serine/threonine-protein kinase Nek4 (Homo sapiens) (UniProt P51957). The assay can be described thus: Selectivity interaction (KinomeScan (DiscoverX)) EUB0000229b NEK4. To be noted: at 10 µM.
Assay [5] deals with T2, Tyrosine-protein kinase ZAP-70 (Homo sapiens) (UniProt P43403).
T2 sequence (whole entry): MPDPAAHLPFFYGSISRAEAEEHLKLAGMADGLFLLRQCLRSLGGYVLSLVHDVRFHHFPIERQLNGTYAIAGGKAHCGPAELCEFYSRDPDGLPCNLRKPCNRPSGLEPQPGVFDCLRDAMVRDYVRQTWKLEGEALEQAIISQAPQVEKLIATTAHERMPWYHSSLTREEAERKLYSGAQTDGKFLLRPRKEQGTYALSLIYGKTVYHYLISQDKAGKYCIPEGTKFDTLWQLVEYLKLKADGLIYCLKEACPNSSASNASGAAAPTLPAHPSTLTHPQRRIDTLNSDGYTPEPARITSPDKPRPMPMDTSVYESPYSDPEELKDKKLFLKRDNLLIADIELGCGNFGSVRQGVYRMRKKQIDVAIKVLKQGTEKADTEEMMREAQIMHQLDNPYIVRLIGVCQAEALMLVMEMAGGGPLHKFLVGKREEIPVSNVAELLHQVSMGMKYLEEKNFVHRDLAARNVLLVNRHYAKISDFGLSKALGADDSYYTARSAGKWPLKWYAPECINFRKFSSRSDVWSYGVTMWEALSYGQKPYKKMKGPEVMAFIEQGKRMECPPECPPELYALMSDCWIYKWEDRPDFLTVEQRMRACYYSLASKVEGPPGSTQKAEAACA
The assay can be described thus: Selectivity interaction (KinomeScan (DiscoverX)) EUB0001619a ZAP70. To be noted: at 1 µM.

The target in assay [6] is Cyclin-dependent kinase 5 (Homo sapiens, UniProt Q00535). The assay can be described thus: Selectivity interaction (ActivX KiNativ screen (kinase selectivity in THP-1 cell lysates)) EUB0000639a CDK5. In kind it is subcellular. Particulars: lysate.
Sequence of Cyclin-dependent kinase 5 (Q00535 whole entry, looked up): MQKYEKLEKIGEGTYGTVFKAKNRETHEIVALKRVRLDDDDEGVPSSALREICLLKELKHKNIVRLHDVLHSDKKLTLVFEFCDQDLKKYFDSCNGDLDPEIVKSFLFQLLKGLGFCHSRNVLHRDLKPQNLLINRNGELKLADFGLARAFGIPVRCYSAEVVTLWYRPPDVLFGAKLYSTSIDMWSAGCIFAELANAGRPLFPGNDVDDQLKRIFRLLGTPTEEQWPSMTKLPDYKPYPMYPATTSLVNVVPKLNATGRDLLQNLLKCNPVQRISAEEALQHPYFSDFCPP
Assay [7] has as its target Tyrosine-protein kinase Fgr (Homo sapiens) (UniProt P09769). The assay can be described thus: Selectivity interaction (Millipore kinase profiler) EUB0000124b FGR. To be noted: at 10 µM.
Assay [8] addresses Serine/threonine-protein kinase PAK 6 (Homo sapiens) (UniProt Q9NQU5). The assay can be described thus: Selectivity interaction (KinomeScan (DiscoverX)) EUB0000695a PAK6. Particulars: at 100 nM.
For assay [9], the target named is Tyrosine-protein kinase JAK1 (Homo sapiens, UniProt P23458). The assay can be described thus: Selectivity interaction (ProQinase) EUB0000171b JAK1.
Sequence of Tyrosine-protein kinase JAK1 (P23458 whole entry, canonical isoform): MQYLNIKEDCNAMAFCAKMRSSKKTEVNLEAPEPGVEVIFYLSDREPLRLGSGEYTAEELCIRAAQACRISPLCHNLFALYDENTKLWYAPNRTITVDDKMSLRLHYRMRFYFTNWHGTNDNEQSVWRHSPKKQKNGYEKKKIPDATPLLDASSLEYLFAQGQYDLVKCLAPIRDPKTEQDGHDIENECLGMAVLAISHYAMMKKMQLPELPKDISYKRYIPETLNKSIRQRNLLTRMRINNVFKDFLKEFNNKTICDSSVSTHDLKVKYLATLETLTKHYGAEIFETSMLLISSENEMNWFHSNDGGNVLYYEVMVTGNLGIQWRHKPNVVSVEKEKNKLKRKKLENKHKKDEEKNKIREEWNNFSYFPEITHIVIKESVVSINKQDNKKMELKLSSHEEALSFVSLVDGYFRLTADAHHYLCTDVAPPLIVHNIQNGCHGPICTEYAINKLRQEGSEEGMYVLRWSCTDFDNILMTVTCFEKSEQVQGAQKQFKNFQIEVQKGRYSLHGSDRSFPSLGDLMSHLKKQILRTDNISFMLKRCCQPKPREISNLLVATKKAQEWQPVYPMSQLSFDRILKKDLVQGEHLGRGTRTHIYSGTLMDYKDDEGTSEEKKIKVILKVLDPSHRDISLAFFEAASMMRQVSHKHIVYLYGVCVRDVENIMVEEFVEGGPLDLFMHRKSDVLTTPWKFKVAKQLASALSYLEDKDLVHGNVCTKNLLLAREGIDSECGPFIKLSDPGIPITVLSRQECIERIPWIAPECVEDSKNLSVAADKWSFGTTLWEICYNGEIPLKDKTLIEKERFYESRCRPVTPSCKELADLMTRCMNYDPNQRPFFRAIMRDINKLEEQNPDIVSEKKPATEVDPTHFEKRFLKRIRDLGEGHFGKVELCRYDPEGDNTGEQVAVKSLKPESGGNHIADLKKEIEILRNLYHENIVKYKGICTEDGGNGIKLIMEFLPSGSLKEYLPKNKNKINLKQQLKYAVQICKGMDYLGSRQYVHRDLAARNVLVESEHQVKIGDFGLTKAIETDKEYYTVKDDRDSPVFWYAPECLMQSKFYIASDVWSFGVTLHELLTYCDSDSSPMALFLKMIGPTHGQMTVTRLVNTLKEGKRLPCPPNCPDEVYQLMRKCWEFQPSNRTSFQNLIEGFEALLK
In assay [10] the target is Casein kinase I isoform gamma-1 (Homo sapiens) (UniProt Q9HCP0). The assay can be described thus: Selectivity interaction (Upstate Kinase Profiler service (Millipore)) EUB0000056c CSNK1G1. To be noted: at 1 µM.
Sequence of Casein kinase I isoform gamma-1 (Homo sapiens) (Q9HCP0 whole entry, looked up, canonical isoform): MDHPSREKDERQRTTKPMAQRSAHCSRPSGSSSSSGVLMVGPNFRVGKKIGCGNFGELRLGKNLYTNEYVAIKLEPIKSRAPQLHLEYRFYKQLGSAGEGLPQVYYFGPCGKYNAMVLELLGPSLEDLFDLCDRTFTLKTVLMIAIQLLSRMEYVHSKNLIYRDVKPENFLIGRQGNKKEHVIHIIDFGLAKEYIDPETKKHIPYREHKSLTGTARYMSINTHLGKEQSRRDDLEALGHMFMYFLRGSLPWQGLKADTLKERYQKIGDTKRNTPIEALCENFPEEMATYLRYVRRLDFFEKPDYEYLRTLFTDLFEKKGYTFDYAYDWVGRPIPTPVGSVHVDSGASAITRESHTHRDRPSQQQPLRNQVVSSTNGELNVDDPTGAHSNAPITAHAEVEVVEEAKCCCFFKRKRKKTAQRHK
The target in assay [11] is T3, Rhodopsin kinase GRK1 (Homo sapiens) (UniProt Q15835).
T3 sequence (whole entry): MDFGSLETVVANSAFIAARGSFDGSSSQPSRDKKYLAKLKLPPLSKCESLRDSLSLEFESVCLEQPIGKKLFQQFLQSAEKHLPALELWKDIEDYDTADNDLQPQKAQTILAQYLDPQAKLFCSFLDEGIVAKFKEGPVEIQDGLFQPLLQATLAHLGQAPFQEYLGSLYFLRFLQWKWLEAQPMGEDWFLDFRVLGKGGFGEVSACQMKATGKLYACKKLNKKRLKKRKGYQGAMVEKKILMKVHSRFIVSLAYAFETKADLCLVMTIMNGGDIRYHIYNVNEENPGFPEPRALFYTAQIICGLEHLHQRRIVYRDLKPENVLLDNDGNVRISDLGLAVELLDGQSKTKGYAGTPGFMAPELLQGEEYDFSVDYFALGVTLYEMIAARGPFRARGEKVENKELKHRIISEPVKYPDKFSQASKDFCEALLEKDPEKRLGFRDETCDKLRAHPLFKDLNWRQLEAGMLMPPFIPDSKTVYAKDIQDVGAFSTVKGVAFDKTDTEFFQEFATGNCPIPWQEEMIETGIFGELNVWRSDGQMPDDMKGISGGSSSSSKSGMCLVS
The assay can be described thus: Selectivity interaction (KinomeScan (DiscoverX)) EUB0000595a GRK1. Particulars: at 10 µM.

Structures are written as SMILES.

Sequence of Tyrosine-protein kinase Fgr (Homo sapiens) (P09769 2-529 limits assumed): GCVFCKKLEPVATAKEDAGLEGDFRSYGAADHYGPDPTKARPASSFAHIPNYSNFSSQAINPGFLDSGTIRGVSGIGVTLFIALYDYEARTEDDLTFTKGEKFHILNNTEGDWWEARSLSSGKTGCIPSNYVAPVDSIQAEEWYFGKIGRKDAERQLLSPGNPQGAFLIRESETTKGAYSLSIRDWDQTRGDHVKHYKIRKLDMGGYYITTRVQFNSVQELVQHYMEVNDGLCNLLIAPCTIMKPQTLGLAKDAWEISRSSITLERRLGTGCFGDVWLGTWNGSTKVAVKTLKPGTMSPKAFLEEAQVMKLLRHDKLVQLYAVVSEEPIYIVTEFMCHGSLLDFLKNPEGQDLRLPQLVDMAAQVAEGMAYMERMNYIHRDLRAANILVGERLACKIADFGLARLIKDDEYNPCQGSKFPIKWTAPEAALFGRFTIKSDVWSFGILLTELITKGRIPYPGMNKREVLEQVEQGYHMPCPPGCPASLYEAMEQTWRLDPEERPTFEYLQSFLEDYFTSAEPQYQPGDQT
Sequence of Serine/threonine-protein kinase Nek4 (Homo sapiens) (P51957 whole entry, looked up): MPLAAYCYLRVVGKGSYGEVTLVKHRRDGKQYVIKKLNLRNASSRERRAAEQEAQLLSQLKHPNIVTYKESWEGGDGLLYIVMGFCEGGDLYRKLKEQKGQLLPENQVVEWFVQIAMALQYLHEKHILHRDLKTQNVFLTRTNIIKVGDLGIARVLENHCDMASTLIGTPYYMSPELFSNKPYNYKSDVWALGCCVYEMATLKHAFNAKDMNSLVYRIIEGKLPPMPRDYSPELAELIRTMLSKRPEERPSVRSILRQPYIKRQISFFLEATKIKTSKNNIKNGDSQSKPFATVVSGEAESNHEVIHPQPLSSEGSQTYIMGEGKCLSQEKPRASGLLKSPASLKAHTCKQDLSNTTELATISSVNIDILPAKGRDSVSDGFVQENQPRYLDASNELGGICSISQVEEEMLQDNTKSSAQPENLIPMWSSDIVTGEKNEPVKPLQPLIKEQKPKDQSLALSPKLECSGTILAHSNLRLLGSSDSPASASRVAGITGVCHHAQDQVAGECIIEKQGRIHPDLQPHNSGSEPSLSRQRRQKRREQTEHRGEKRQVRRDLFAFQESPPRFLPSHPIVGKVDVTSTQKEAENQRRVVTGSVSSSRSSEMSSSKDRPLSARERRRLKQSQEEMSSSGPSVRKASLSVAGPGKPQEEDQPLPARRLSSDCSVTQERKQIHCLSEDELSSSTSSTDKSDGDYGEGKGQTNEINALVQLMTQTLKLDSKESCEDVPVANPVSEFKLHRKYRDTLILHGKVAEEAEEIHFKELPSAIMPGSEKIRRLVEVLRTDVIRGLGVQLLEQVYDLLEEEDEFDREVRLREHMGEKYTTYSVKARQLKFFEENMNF
Sequence of Protein arginine N-methyltransferase 6 (Q96LA8 whole entry, looked up): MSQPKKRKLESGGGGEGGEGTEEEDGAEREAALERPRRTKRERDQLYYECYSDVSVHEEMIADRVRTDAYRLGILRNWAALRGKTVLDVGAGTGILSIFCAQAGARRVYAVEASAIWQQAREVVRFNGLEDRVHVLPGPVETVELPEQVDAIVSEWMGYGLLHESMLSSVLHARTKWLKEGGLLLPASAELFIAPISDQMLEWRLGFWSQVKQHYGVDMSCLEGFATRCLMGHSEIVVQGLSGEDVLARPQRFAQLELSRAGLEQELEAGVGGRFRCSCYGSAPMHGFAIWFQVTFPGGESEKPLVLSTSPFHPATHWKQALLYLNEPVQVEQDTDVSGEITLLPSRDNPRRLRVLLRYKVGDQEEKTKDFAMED
Sequence of Serine/threonine-protein kinase PAK 6 (Homo sapiens) (Q9NQU5 whole entry, looked up): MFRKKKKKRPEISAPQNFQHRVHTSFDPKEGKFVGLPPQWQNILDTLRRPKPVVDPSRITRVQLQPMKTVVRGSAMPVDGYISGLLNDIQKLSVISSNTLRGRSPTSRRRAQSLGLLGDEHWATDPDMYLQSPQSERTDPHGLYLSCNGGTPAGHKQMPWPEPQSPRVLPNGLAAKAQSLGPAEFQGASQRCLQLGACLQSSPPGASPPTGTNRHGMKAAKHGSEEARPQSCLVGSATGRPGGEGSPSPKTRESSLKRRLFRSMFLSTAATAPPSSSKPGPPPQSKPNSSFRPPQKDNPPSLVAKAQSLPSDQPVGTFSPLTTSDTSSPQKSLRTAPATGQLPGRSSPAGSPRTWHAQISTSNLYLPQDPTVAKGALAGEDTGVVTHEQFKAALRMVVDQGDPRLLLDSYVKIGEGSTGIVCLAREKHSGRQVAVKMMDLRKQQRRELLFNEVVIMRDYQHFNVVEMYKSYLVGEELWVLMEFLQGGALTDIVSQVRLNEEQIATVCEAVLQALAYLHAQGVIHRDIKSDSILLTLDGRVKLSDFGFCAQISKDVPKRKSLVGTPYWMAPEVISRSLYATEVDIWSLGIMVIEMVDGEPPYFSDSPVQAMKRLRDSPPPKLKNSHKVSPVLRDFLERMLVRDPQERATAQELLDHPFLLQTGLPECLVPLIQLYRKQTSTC

Compound `Cn1cc(-n2cnc3c(NCc4nc5cc(Cl)c(Cl)cc5[nH]4)nc(N4CCOCC4)nc32)cn1` had a % of control in assay [1] of 3.2%.

As to `O=C(NOC[C@H](O)CO)c1ccc(F)c(F)c1Nc1ccc(I)cc1F`, in [2], the % of control was found to be 86%.

For `CNCCN1CCC(c2cc(CN(C)C(=O)c3cccc(Oc4ccccc4)c3)ccn2)CC1`, the % activity in assay [3] is above 90%.

The compound `COc1cc(N(C)c2ccnc3ccc(C(F)(F)F)cc23)cc(OC)c1OC` came in with a % binding in assay [4] of 82%.

For the compound `N#Cc1cccc(-c2c[nH]c3ncnc(N4CCOCC4)c23)c1`, the % of control in assay [5] is 96%.

Take `CC[C@@H]1[C@H](F)C(=O)N[C@@H]1COc1nccc2cc(C(N)=O)c(OC)cc12` [ZIMLOVISERTIB]: the % of inhibition in assay [6] (at 0.01 µM) was 3.6%; in assay [6] (at 0.04 µM), 3.9%; in [6] (at 0.2 µM), -0.2%; in [6] (at 1 µM), 2.7%; in assay [6] (at 5 µM) it was -6.9%.

In assay [7], `CC(=O)Nc1cccc(-n2c(=O)n(C3CC3)c(=O)c3c(Nc4ccc(I)cc4F)n(C)c(=O)c(C)c32)c1` returned a % of control of 86%.

With `Cc1cc(F)c(C(=O)Nc2cccc(-c3nncn3C(C)C)n2)cc1-n1cnc(C2CC2)c1`, the % of control in [8] came out at 90%.

As to `C=CC(=O)Nc1cccc(C(=O)Nc2ccc(Nc3cc(-c4[nH]c(SC)nc4C)ccn3)cc2)c1`, the % of control came out at 98% in assay [9] (at 1 µM) and 96% in [9] (at 5 µM).

With `Cc1ccc(-c2ccc3c(ccc4sc5c(c43)NC[C@@H](C)NC5=O)n2)cn1`, the % of inhibition in assay [10] came to 23%.

The compound `COCC(=O)NC/C=C/c1ccc2ncnc(Nc3ccc(Oc4ccc(C)nc4)c(C)c3)c2c1` [CP-724714] gave a % of control in [11] of 100%.
